# Assay results from ChEMBL document CHEMBL1123004, “Synthesis and antidepressant profiles of phenyl-substituted 2-amino- and 2-[(alkoxycarbonyl)amino]-1,4,5,6-tetrahydropyrimidines” (J Med Chem, 1985).
# The source made the active and inactive calls. The rule behind the calls is not given here.
# Legend:
# [1] = Lethal dose against mice after peroral administration; format: toxicity, organism-based; details: mouse, in vivo, po
# Mus musculus [2] = species on record: Mus musculus; experiment: Antagonism of reserpine-induced hypothermia in mice; format: functional
# Mus musculus [3] = species on record: Mus musculus; experiment: Antagonism of reserpine-induced hypothermia in mice value given as 0.01-0.15; format: functional
# [4] = Lethal dose against mice after intraperitoneal administration; range = 31-53; format: toxicity, organism-based; details: mouse, in vivo, ip
# [5] = Lethal dose against mice after peroral administration; RANGE = 50-122; format: toxicity, organism-based; details: mouse, in vivo, po
# Rattus norvegicus [6] = species on record: Rattus norvegicus; experiment: Inhibition of uptake of 5-HT in rat brain slices; format: functional
# Rattus norvegicus [7] = species on record: Rattus norvegicus; experiment: Inhibition of uptake of Dopamine in rat brain slices; format: functional
# Rattus norvegicus [8] = species on record: Rattus norvegicus; experiment: Inhibition of uptake of nor epinephrine in rat brain slices; format: functional
# Mus musculus [9] = experiment: In vivo inhibition of uptake of nor epinephrine in mouse heart; value ranges from 0.01-0.15; format: functional
# Mus musculus [10] = species on record: Mus musculus; experiment: animal or person
# [11] = Lethal dose against mice after intraperitoneal administration; range = 25-28; format: toxicity, organism-based; details: mouse, in vivo, ip
# Mus musculus [12] = experiment: In vivo inhibition of uptake of nor epinephrine in mouse heart; value ranges from 0.01-0.14; format: functional
# [13] = Lethal dose against mice after peroral administration; range = 111-182; format: toxicity, organism-based; details: mouse, in vivo, po
# Mus musculus [14] = experiment: In vivo inhibition of uptake of nor epinephrine in mouse heart; format: functional
# Mus musculus [15] = species on record: Mus musculus; experiment: Antagonism of reserpine-induced hypothermia in mice; Short acting; format: functional
# Mus musculus [16] = experiment: Antagonism of reserpine-induced hypothermia in mice; I=Inactive at 10 mg/kg; format: functional, organism-based; design: dose 10 mg/kg
# Mus musculus [17] = species on record: Mus musculus; experiment: Antagonism of reserpine-induced hypothermia in mice; value given as 0.15-0.6; format: functional
# Mus musculus [18] = species on record: Mus musculus; experiment: Antagonism of reserpine-induced hypothermia in mice; I=inactive at 10 mg/ Kg; format: functional, organism-based
# Mus musculus [19] = experiment: In vivo inhibition of uptake of nor epinephrine in mouse heart; value ranges from 3.1-14.6; format: functional
structure (smiles),measurement,setting,value
CCOC(=O)NC1=NCC(c2ccccc2)CN1 (stereo unspecified),LD50,[1],> 1000 mg/kg
same,Min oral dose,Mus musculus [2],0.04 mg/kg
NC1=NCC(c2ccccc2)CN1 (stereo unspecified),Min oral dose,Mus musculus [3],0.15 mg/kg
same,LD50,[4],42 mg/kg
same,LD50,[5],78 mg/kg
same,IC50,Rattus norvegicus [6],1.6 µM
same,IC50,Rattus norvegicus [7],0.03 µM
same,IC50,Rattus norvegicus [8],0.01 µM
same,ED50,Mus musculus [9],0.038 mg/kg
COC(=O)NC1=NCC(c2ccc(F)cc2)CN1 (stereo unspecified),Min oral dose,Mus musculus [2],0.04 mg/kg
COC(=O)NC1=NC(c2ccccc2C(F)(F)F)CCN1 (stereo unspecified),Min oral dose,Mus musculus [2],10 mg/kg
CN1CC(c2ccccc2)CN(C)C1=N (stereo unspecified),Min oral dose,Mus musculus [2],10 mg/kg
CNCCCN1c2ccccc2CCc2ccccc21 [DESIPRAMINE],ED50,Mus musculus [10],1.4 mg/kg
same,IC50,Rattus norvegicus [6],12 µM
same,IC50,Rattus norvegicus [7],12 µM
COC(=O)NC1=NCC(c2ccccc2)CN1 (stereo unspecified),LD50,[11],27 mg/kg
same,Min oral dose,Mus musculus [2],0.0006 mg/kg
same,ED50,Mus musculus [12],0.038 mg/kg
same,IC50,Rattus norvegicus [6],160 µM
same,LD50,[13],142 mg/kg
same,IC50,Rattus norvegicus [7],24 µM
same,IC50,Rattus norvegicus [8],4.9 µM
COC(=O)N=C1N(C)CC(c2ccccc2)CN1C (stereo unspecified),Min oral dose,Mus musculus [2],10 mg/kg
COC(=O)NC1=NCC(c2cccc(Br)c2)CN1 (stereo unspecified),Min oral dose,Mus musculus [2],1 mg/kg
CN(C)CCC=C1c2ccccc2CCc2ccccc21 [AMITRIPTYLINE],ED50,Mus musculus [14],4.4 mg/kg
same,Min oral dose,Mus musculus [2],0.15 mg/kg
same,IC50,Rattus norvegicus [6],12 µM
same,IC50,Rattus norvegicus [7],12 µM
same,IC50,Rattus norvegicus [8],2.5 µM
NC1=NCC(c2cccc(Br)c2)CN1 (stereo unspecified),Min oral dose,Mus musculus [2],10 mg/kg
CC(C)OC(=O)NC1=NCC(c2ccccc2)CN1 (stereo unspecified),LD50,[1],> 1000 mg/kg
same,Min oral dose,Mus musculus [2],0.04 mg/kg
CNC1=NCC(c2ccccc2)CN1 (stereo unspecified),Min oral dose,Mus musculus [2],1 mg/kg
NC1=NC(c2ccccc2)CCN1 (stereo unspecified),Min oral dose,Mus musculus [2],10 mg/kg
COC(=O)NC1=NC(c2ccccc2)CCN1 (stereo unspecified),Min oral dose,Mus musculus [15],2.5 mg/kg
COC(=O)NC1=NC(c2ccc(F)cc2)CCN1 (stereo unspecified),Min oral dose,Mus musculus [2],1 mg/kg
COC(=O)NC1=NC(c2ccc(OC)cc2)CCN1 (stereo unspecified),Min oral dose,Mus musculus [2],10 mg/kg
COC(=O)NC1=NCC(c2ccccc2Cl)CN1 (stereo unspecified),Min oral dose,Mus musculus [2],10 mg/kg
COC(=O)NC1=NCC(c2ccc(C(C)C)cc2)CN1 (stereo unspecified),Min oral dose,Mus musculus [2],1 mg/kg
CNC1=NCC(c2ccccc2)CN1C (stereo unspecified),Min oral dose,Mus musculus [2],10 mg/kg
COC(=O)NC1=NCC(c2ccc(Cl)cc2Cl)CN1 (stereo unspecified),Min oral dose,Mus musculus [2],10 mg/kg
COC(=O)NC1=NC(c2ccc(C)cc2)CCN1 (stereo unspecified),Min oral dose,Mus musculus [16],inactive
COC(=O)NC1=NCC(c2c(Cl)cccc2Cl)CN1 (stereo unspecified),Min oral dose,Mus musculus [17],0.6 mg/kg
CCCOC(=O)NC1=NC(c2ccccc2)CCN1 (stereo unspecified),Min oral dose,Mus musculus [18],inactive
CN(C)CCCN1c2ccccc2CCc2ccccc21 [IMIPRAMINE],Min oral dose,Mus musculus [2],0.15 mg/kg
same,IC50,Rattus norvegicus [6],16 µM
same,IC50,Rattus norvegicus [7],12 µM
same,IC50,Rattus norvegicus [8],4.6 µM
same,ED50,Mus musculus [19],6.7 mg/kg
COC(=O)NC1=NC(c2ccccc2)CCN1C (stereo unspecified),Min oral dose,Mus musculus [2],10 mg/kg
COC(=O)NC1=NCC(c2ccccc2)CN1C (stereo unspecified),Min oral dose,Mus musculus [17],0.15 mg/kg
